Results published in article PMC10794144, “A novel antibiotic class targeting the lipopolysaccharide transporter” (Nature, 2024).
Like-named read-outs stand apart in the source and are kept apart here. Marks after values point to notes of the source that are not given here.

Assays:
[1] = target: CYP3A4 (Homo sapiens, UniProt P08684); assay: CYP inhibition; type: in vitro ADME
[2] = target: T1, Phosphodiesterase 4D2 (Homo sapiens, UniProt Q08499); assay: Off-target screening (CEREP); type: biochemical; settings: read-out: percent inhibition
T1 construct: purchased Eurofins CEREP SA
T1 sequence (Q08499 303-809 limits assumed): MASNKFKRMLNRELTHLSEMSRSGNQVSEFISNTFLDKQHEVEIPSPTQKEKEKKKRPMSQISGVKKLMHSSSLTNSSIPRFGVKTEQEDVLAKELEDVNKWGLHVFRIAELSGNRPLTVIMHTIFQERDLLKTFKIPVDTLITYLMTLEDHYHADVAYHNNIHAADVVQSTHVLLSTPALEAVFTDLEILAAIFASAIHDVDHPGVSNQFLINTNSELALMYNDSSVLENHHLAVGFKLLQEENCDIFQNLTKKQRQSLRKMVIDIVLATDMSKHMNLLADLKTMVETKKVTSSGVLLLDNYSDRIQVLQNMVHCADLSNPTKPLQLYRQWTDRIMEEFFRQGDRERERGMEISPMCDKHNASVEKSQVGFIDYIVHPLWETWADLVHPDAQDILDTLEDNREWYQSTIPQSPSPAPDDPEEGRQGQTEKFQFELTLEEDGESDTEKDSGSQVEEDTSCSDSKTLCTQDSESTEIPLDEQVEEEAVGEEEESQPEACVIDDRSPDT
Description: (§1) Supplementary Table 1 │ Off-target activity screening f or MCP compou nds […]
(§2) The assays given in the table above were conducted at Eurofins CEREP S A (Celle-Lévescault, France) and were run as single point measurements in duplicates in the presence of 10 µ M of the test compound and reported as percent inhibition of the radioligand signal or control enzymatic activity. n.d., not

[3] = target: T2, Matrix metalloprotease-9 (Homo sapiens, UniProt P14780); assay: Off-target screening (CEREP); type: biochemical; settings: read-out: percent inhibition
T2 construct: purchased Eurofins CEREP SA
T2 sequence (P14780 94-707): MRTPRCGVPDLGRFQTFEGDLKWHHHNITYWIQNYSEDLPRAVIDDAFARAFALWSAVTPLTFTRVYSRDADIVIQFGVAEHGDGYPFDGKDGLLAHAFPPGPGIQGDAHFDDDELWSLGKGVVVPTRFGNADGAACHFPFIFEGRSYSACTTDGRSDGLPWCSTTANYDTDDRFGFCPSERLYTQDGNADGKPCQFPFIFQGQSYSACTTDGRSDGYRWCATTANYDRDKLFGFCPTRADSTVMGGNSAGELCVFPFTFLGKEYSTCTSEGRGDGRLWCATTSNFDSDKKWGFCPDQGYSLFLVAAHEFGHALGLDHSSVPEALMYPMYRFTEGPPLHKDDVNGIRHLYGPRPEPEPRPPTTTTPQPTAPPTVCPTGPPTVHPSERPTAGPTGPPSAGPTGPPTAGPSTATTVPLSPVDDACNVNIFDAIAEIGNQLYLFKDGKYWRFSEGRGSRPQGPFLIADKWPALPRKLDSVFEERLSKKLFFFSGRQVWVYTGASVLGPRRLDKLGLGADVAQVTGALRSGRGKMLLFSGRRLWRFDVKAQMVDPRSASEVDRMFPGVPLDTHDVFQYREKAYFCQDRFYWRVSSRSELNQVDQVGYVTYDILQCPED
Description: as §1, §2

[4] = target: T3, Abl kinase (Homo sapiens, UniProt P00519); assay: Off-target screening (CEREP); type: biochemical; settings: read-out: percent inhibition
T3 construct: purchased Eurofins CEREP SA
T3 sequence (P00519 whole entry): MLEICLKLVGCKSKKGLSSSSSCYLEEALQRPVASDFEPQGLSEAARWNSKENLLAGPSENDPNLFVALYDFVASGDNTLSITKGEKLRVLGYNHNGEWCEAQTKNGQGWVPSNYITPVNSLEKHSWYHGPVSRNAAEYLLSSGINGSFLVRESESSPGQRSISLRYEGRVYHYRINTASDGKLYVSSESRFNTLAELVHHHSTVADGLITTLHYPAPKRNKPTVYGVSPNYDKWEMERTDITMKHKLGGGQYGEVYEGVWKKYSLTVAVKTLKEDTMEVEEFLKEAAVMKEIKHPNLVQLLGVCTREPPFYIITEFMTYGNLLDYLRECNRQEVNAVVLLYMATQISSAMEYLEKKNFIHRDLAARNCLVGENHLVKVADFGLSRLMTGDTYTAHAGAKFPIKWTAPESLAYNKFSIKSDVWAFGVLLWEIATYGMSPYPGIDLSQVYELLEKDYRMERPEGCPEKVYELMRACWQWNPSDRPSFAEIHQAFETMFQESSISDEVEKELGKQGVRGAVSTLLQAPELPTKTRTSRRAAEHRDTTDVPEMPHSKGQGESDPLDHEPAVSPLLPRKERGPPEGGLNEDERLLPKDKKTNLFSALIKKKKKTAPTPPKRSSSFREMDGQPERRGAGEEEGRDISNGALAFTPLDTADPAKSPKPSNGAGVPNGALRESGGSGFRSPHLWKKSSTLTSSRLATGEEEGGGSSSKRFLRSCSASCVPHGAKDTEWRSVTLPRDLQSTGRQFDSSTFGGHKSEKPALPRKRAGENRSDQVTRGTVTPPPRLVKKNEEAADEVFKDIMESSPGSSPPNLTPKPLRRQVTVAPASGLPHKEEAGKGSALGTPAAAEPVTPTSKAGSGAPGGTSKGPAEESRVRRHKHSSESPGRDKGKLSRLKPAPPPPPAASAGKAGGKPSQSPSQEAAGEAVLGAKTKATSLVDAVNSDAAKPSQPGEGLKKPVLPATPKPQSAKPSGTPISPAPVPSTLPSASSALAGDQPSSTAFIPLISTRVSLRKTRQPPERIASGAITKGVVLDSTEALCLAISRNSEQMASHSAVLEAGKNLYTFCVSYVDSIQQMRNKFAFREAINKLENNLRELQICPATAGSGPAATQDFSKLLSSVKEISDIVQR
Description: as §1, §2

[5] = target: T4, CDK2 (Homo sapiens, UniProt P24941); assay: Off-target screening (CEREP); type: biochemical; settings: read-out: percent inhibition
T4 construct: purchased Eurofins CEREP SA
Description: as §1, §2

[6] = test system: HIV-1 protease; assay: Off-target screening (CEREP); type: biochemical; settings: 10 µM, duplicates
Description: as §1, §2

[7] = target: T5, Phosphodiesterase 3B (Homo sapiens, UniProt Q13370); assay: Off-target screening (CEREP); type: biochemical; settings: read-out: percent inhibition
T5 construct: purchased Eurofins CEREP SA
T5 sequence (Q13370 whole entry): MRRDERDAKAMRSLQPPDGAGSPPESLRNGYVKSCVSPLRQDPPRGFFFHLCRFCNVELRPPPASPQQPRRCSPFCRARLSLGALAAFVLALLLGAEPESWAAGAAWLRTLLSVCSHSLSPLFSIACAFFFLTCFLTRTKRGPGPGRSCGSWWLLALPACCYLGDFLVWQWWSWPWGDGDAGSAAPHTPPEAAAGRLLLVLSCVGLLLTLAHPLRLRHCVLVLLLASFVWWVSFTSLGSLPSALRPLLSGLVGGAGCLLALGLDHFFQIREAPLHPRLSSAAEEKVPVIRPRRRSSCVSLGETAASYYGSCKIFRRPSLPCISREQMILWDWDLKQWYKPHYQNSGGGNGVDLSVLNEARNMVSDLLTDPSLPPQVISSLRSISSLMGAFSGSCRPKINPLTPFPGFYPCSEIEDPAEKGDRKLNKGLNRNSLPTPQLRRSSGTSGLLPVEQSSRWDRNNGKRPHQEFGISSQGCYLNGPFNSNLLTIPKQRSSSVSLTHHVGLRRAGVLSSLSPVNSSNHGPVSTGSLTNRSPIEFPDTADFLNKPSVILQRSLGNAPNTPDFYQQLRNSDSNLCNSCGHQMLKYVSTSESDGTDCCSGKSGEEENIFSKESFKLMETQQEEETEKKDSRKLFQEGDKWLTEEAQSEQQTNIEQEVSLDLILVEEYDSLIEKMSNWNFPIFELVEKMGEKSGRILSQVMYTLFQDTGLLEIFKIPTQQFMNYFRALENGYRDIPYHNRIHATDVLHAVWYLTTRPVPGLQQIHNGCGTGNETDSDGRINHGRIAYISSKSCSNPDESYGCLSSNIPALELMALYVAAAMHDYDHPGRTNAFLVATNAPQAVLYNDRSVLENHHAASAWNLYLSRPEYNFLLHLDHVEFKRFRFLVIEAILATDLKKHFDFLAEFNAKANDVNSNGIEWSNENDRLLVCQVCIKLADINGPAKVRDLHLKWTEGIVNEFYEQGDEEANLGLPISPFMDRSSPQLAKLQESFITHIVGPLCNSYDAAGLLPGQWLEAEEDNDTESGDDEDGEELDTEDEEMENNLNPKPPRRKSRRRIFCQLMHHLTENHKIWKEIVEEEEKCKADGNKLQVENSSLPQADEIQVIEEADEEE
Description: as §1, §2

[8] = target: T6, GSK-3A (Homo sapiens, UniProt P49840); assay: Off-target screening (CEREP); type: biochemical; settings: read-out: percent inhibition
T6 construct: purchased Eurofins CEREP SA
T6 sequence (P49840 whole entry): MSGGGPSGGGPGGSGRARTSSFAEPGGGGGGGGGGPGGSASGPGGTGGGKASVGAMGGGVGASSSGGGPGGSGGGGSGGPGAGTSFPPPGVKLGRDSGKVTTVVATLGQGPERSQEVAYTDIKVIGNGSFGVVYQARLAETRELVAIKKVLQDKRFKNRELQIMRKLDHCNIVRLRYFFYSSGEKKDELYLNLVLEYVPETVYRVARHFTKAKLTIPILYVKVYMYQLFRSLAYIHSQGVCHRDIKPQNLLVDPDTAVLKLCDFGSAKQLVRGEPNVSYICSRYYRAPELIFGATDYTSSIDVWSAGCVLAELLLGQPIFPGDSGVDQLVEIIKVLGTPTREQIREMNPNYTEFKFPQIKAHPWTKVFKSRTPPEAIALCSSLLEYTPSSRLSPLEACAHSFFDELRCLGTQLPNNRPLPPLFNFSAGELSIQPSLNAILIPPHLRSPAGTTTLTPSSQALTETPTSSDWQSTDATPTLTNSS
Description: as §1, §2

[9] = target: T7, Cyclooxygenase 2 (Homo sapiens, UniProt P35354); assay: Off-target screening (CEREP); type: biochemical; settings: read-out: percent inhibition
T7 construct: purchased Eurofins CEREP SA
T7 sequence (P35354 18-604): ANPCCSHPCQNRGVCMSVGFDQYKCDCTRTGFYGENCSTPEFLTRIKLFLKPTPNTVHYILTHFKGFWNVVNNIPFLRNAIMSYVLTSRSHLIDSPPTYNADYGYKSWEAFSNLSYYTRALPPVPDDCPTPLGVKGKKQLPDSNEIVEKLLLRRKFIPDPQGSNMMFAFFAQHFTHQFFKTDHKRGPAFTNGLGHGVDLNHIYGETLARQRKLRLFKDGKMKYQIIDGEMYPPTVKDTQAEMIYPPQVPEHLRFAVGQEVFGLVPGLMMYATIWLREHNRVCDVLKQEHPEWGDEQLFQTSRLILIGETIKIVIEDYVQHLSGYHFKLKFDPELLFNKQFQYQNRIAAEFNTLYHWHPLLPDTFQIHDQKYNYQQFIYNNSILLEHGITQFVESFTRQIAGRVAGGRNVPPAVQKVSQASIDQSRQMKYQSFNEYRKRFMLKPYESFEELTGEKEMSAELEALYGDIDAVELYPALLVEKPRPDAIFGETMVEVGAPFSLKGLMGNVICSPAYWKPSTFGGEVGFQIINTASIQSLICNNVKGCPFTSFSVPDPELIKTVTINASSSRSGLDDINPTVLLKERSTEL
Description: as §1, §2

[10] = target: T8, Monoamine oxidase-A (Homo sapiens, UniProt P21397); assay: Off-target screening (CEREP); type: biochemical; settings: read-out: percent inhibition
T8 construct: purchased Eurofins CEREP SA
T8 sequence (P21397 1-527): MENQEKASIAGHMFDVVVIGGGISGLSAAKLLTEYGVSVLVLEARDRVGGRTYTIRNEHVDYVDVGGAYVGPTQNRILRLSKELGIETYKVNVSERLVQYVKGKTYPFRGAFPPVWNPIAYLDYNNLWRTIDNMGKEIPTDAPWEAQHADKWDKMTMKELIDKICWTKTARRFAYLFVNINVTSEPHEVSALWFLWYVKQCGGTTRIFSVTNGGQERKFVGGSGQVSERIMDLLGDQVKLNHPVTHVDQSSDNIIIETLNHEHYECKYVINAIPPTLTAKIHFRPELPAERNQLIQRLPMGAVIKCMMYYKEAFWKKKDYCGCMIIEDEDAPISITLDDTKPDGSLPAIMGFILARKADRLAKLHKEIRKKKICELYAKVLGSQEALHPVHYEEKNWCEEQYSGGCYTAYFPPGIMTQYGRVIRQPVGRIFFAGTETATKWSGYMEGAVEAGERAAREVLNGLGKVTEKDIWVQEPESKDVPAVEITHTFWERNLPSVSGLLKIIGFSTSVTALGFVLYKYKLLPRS
Description: as §1, §2

[11] = target: T9, Acetylcholinesterase (Homo sapiens, UniProt P22303); assay: Off-target screening (CEREP); type: biochemical; settings: read-out: percent inhibition
T9 construct: purchased Eurofins CEREP SA
T9 sequence (P22303 32-614): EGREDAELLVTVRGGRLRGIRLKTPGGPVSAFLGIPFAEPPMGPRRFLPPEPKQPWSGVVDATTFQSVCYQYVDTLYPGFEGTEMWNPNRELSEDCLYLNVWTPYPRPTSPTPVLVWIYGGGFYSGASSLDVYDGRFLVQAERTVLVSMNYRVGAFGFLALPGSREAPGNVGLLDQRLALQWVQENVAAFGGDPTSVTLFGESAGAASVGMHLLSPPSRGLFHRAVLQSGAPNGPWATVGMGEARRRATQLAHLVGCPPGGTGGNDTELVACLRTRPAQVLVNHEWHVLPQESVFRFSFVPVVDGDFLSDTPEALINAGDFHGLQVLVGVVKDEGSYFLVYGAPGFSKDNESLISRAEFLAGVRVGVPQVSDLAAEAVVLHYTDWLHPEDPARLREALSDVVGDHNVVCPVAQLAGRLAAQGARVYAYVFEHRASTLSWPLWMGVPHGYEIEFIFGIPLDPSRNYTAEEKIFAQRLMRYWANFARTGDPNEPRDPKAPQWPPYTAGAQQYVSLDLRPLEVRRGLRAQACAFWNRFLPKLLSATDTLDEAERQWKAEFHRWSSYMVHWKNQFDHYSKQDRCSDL
Description: as §1, §2

[12] = target: T10, ZAP70 kinase (Homo sapiens, UniProt P43403); assay: Off-target screening (CEREP); type: biochemical; settings: read-out: percent inhibition
T10 construct: purchased Eurofins CEREP SA
T10 sequence (P43403 1-619): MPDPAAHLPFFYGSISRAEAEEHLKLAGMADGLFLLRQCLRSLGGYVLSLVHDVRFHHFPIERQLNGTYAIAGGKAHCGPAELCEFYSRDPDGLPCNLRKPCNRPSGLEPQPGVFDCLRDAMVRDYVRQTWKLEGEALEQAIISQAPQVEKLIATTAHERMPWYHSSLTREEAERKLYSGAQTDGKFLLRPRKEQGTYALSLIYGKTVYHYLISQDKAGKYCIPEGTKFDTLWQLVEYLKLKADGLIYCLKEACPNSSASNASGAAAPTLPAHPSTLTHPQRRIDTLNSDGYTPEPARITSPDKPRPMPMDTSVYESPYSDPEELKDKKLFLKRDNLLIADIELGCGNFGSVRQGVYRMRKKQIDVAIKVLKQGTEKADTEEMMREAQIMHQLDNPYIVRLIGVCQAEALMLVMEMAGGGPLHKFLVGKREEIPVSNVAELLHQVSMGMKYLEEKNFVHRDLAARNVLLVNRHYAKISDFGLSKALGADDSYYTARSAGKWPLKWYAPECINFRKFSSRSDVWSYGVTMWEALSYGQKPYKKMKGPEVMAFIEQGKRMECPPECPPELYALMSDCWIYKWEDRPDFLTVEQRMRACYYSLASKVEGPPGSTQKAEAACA
Description: as §1, §2

[13] = test system: E. coli ATCC 25922; assay: microbe, parasite or virus in culture; settings: for RO7223280 MIC 100%: E. coli ATCC 25922, read at 100%; for MIC: Escherichia coli
Description: MIC determinations were performed using the broth microdilution method and in line with CLSI guidelines M07 and M100 (refs. [37],[38]). Bacterial inocula were prepared by diluting a 0.5 McFarland suspension in CAMHB or lysogeny broth (LB) specifically for A. baylyi isolates. […] MIC values of all of the tested antibiotics were read as the lowest compound concentration inhibiting bacterial growth by naked eye or beyond which the OD600 ceased to decrease.

[14] = test system: panel of 50 off-targets; assay: Off-target activity screening, number of hits in panel of 50; type: binding; settings: > 30% inhibition at 10 μM

CYP3A4, sequence (P08684 whole entry): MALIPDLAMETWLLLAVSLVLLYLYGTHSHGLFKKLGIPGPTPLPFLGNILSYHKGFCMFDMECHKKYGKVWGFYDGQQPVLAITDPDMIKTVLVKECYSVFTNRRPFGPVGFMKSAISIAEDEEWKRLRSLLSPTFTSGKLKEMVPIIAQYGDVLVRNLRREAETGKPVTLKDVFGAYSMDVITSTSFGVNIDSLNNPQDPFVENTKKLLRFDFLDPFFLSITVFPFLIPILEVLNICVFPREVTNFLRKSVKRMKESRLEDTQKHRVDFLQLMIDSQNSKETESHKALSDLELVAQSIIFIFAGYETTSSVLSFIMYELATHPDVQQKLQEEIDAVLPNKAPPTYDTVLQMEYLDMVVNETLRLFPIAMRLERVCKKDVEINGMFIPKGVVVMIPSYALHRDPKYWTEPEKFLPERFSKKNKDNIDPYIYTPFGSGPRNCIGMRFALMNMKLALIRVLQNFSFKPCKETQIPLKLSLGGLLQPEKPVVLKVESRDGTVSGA

SMILES: CN1C(=O)[C@H](CCCCN)NC(=O)[C@H](CCCN)NCc2cccnc2Sc2cccc(-c3ccc(C(=O)O)cc3)c2CNC(=O)[C@@H]1Cc1c[nH]c2ccccc12 [zosurabalpin]
- CYP inh. (3A4) [1]: >50 (3A4) >50 (2C9) >50 (2D6) μM
- inhibition at 10 µM [2]: 12%
- inhibition at 10 µM [3]: 10%
- inhibition at 10 µM [4]: -18%
- inhibition at 10 µM [5]: 9%
- percent inhibition [6]: 16%
- inhibition at 10 µM [7]: 2%
- inhibition at 10 µM [8]: -1%
- inhibition at 10 µM [9]: -7%
- inhibition at 10 µM [10]: 2%
- inhibition at 10 µM [11]: 13%
- inhibition at 10 µM [12]: 1%
- RO7223280 MIC 100% ([13]; Study LGC296813): >64 µg/mL
- RO7223280 MIC 100% ([13]; Study LGC299544): >64 µg/mL
- RO7223280 MIC 100% ([13]; Study LGC308175): >64 µg/mL
- MIC ([13]; ATCC25922): > 64 µg/mL
- Off-target hits [14]: 0 #

SMILES: C[C@@H](O)[C@H]1C(=O)N2C(C(=O)O)=C(S[C@@H]3CN[C@H](C(=O)N(C)C)C3)[C@H](C)[C@H]12 [meropenem, reference compound]
- MIC ([13]; ATCC25922): ≤ 0.06 µg/mL
- MIC ([13]; ATCC25922, read-out: MIC 100%): ≤ 0.06 µg/mL
- MIC 100% ([13]; Study LGC277937): ≤0.06 µg/mL
- MIC 100% ([13]; Study LGC279800): ≤0.06 µg/mL
- MIC 100% ([13]; Study LGC281440): ≤0.06 µg/mL
- MIC 100% ([13]; Study LGC282160): ≤0.06 µg/mL
- MIC 100% ([13]; Study LGC282623): ≤0.06 µg/mL
- MIC 100% ([13]; Study LGC283932): ≤0.06 µg/mL
- MIC 100% ([13]; Study LGC284200): ≤0.06 µg/mL
- MIC 100% ([13]; Study LGC284879): ≤0.06 µg/mL
- MIC 100% ([13]; Study LGC285582): ≤0.06 µg/mL
- MIC 100% ([13]; Study LGC286210): ≤0.06 µg/mL
- MIC 100% ([13]; Study LGC293598): ≤0.06 µg/mL
- MIC 100% ([13]; Study LGC294355): ≤0.06 µg/mL
- MIC 100% ([13]; Study LGC295147): ≤0.06 µg/mL
- MIC 100% ([13]; Study LGC296813): ≤0.06 µg/mL
- MIC 100% ([13]; Study LGC299544): ≤0.06 µg/mL
- MIC 100% ([13]; Study LGC301026): ≤0.06 µg/mL
- MIC 100% ([13]; Study LGC308175): ≤0.06 µg/mL
- MIC 100% ([13]; Study ROC003): ≤0.06 µg/mL
- MIC 100% ([13]; Study ROC004): ≤0.06 µg/mL
- MIC 100% ([13]; Study ROC005): ≤0.06 µg/mL
- MIC 100% ([13]; Study ROC006): ≤0.06 µg/mL
- MIC 100% ([13]; Study ROC007): ≤0.06 µg/mL
- MIC 100% ([13]; Study ROC008): ≤0.06 µg/mL
- MIC 100% ([13]; Study ROC009): ≤0.06 µg/mL
- MIC 100% ([13]; Study ROC010): ≤0.06 µg/mL
- MIC 100% ([13]; Study ROC013): ≤0.06 µg/mL
